# According to patent US9394446B2, “Method for recovering Ru complex dye from used dye solution” (Tanaka Kikinzoku Kogyo K.K., priority 2012, dated 2016):
# Assay: Preliminary test: dissolving property of dye solution components in ether-based solvents, alkane-based solvents and water
# Details: for dissolving property in Dibutyl ether: 1 mg (solvents: 1 mL) in 1 mL dibutyl ether; for dissolving property in Diethyl ether: 1 mg (solvents: 1 mL) in 1 mL diethyl ether; for dissolving property in Diisopropyl ether: 1 mg (solvents: 1 mL) in 1 mL diisopropyl ether; for dissolving property in Heptane: 1 mg (solvents: 1 mL) in 1 mL heptane; for dissolving property in Hexane: 1 mg (solvents: 1 mL) in 1 mL hexane; for dissolving property in Isoamyl ether: 1 mg (solvents: 1 mL) in 1 mL isoamyl ether; for dissolving property in Methyl propyl ether: 1 mg (solvents: 1 mL) in 1 mL methyl propyl ether; for dissolving property in Octane: 1 mg (solvents: 1 mL) in 1 mL octane; for dissolving property in Pentane: 1 mg (solvents: 1 mL) in 1 mL pentane; for dissolving property in t-Butyl methyl ether: 1 mg (solvents: 1 mL) in 1 mL t-butyl methyl ether
Compound,dissolving property in Dibutyl ether (25° C.),dissolving property in Diethyl ether (25° C.),dissolving property in Diisopropyl ether (25° C.),dissolving property in Heptane (25° C.),dissolving property in Hexane (25° C.),dissolving property in Isoamyl ether (25° C.),dissolving property in Methyl propyl ether (25° C.),dissolving property in Octane (25° C.),dissolving property in Pentane (25° C.),dissolving property in t-Butyl methyl ether (25° C.),"dissolving property in Water (1 mg (solvents: 1 mL) in 1 mL water, 25° C., for comparison)","dissolving property of isoamyl ether, in words (isoamyl ether (C5H11—O—C5H11))","dissolving property of octane, in words (octane with a carbon number of 8)"
"CC#N [Acetonitrile, acetonitrile]",⊙ (those dissolved at 5 g/L or more and those fully miscible with a solvent for dye solution were labeled as “⊙” with excellent dissolving property),⊙ (those dissolved at 5 g/L or more and those fully miscible with a solvent for dye solution were labeled as “⊙” with excellent dissolving property),⊙ (those dissolved at 5 g/L or more and those fully miscible with a solvent for dye solution were labeled as “⊙” with excellent dissolving property),⊙ (those dissolved at 5 g/L or more and those fully miscible with a solvent for dye solution were labeled as “⊙” with excellent dissolving property),⊙ (those dissolved at 5 g/L or more and those fully miscible with a solvent for dye solution were labeled as “⊙” with excellent dissolving property),⊙ (those dissolved at 5 g/L or more and those fully miscible with a solvent for dye solution were labeled as “⊙” with excellent dissolving property),⊙ (those dissolved at 5 g/L or more and those fully miscible with a solvent for dye solution were labeled as “⊙” with excellent dissolving property),⊙ (those dissolved at 5 g/L or more and those fully miscible with a solvent for dye solution were labeled as “⊙” with excellent dissolving property),⊙ (those dissolved at 5 g/L or more and those fully miscible with a solvent for dye solution were labeled as “⊙” with excellent dissolving property),⊙ (those dissolved at 5 g/L or more and those fully miscible with a solvent for dye solution were labeled as “⊙” with excellent dissolving property),⊙ (those dissolved at 5 g/L or more and those fully miscible with a solvent for dye solution were labeled as “⊙” with excellent dissolving property),,
"C[C@H](CCC(=O)O)[C@H]1CC[C@H]2[C@@H]3[C@H](O)C[C@@H]4C[C@H](O)CC[C@]4(C)[C@H]3CC[C@]12C [CDCA, chenodeoxychloic acid]",◯ (those having solubility of 0.05 g/L or more but less than 5 g/L and those miscible with a solvent for dye solution were labeled as “∘” with good dissolving property),⊙ (those dissolved at 5 g/L or more and those fully miscible with a solvent for dye solution were labeled as “⊙” with excellent dissolving property),⊙ (those dissolved at 5 g/L or more and those fully miscible with a solvent for dye solution were labeled as “⊙” with excellent dissolving property),◯ (those having solubility of 0.05 g/L or more but less than 5 g/L and those miscible with a solvent for dye solution were labeled as “∘” with good dissolving property),◯ (those having solubility of 0.05 g/L or more but less than 5 g/L and those miscible with a solvent for dye solution were labeled as “∘” with good dissolving property),Δ (those having the solubility of less than 0.05 g/L were labeled as “Δ” with fair dissolving property),⊙ (those dissolved at 5 g/L or more and those fully miscible with a solvent for dye solution were labeled as “⊙” with excellent dissolving property),Δ (those having the solubility of less than 0.05 g/L were labeled as “Δ” with fair dissolving property),◯ (those having solubility of 0.05 g/L or more but less than 5 g/L and those miscible with a solvent for dye solution were labeled as “∘” with good dissolving property),⊙ (those dissolved at 5 g/L or more and those fully miscible with a solvent for dye solution were labeled as “⊙” with excellent dissolving property),,slightly inferior dissolving property,poor dissolving property
CCCCOc1ccc(-c2ccc(N(c3ccc(-c4ccc(C=C(C#N)C(=O)O)s4)cc3)c3ccc(-c4ccc(OCCCC)cc4OCCCC)cc3)cc2)c(OCCCC)c1 [D35],◯ (those having solubility of 0.05 g/L or more but less than 5 g/L and those miscible with a solvent for dye solution were labeled as “∘” with good dissolving property),⊙ (those dissolved at 5 g/L or more and those fully miscible with a solvent for dye solution were labeled as “⊙” with excellent dissolving property),⊙ (those dissolved at 5 g/L or more and those fully miscible with a solvent for dye solution were labeled as “⊙” with excellent dissolving property),Δ (those having the solubility of less than 0.05 g/L were labeled as “Δ” with fair dissolving property),Δ (those having the solubility of less than 0.05 g/L were labeled as “Δ” with fair dissolving property),Δ (those having the solubility of less than 0.05 g/L were labeled as “Δ” with fair dissolving property),⊙ (those dissolved at 5 g/L or more and those fully miscible with a solvent for dye solution were labeled as “⊙” with excellent dissolving property),Δ (those having the solubility of less than 0.05 g/L were labeled as “Δ” with fair dissolving property),Δ (those having the solubility of less than 0.05 g/L were labeled as “Δ” with fair dissolving property),⊙ (those dissolved at 5 g/L or more and those fully miscible with a solvent for dye solution were labeled as “⊙” with excellent dissolving property),,,
